Assay results: US9073858B2, “Methods of targeted drug development” (priority 2010, dated 2015)
Where two headings read alike, the source gives them in different places. Values belong to the compound of their own block, whether it stands above or below them.

Experiments:
EGFR = target: T1, EGFR (Homo sapiens, UniProt P00533); assay: EGFR in-cell Western (ICW) screening protocol; type: cell-based; design: unit not given here; conditions: listed as 1505
T1 construct: endogenous in cells; host or cells: A431 cells (ATCC CRL-1555)
T1 sequence (P00533 25-1210): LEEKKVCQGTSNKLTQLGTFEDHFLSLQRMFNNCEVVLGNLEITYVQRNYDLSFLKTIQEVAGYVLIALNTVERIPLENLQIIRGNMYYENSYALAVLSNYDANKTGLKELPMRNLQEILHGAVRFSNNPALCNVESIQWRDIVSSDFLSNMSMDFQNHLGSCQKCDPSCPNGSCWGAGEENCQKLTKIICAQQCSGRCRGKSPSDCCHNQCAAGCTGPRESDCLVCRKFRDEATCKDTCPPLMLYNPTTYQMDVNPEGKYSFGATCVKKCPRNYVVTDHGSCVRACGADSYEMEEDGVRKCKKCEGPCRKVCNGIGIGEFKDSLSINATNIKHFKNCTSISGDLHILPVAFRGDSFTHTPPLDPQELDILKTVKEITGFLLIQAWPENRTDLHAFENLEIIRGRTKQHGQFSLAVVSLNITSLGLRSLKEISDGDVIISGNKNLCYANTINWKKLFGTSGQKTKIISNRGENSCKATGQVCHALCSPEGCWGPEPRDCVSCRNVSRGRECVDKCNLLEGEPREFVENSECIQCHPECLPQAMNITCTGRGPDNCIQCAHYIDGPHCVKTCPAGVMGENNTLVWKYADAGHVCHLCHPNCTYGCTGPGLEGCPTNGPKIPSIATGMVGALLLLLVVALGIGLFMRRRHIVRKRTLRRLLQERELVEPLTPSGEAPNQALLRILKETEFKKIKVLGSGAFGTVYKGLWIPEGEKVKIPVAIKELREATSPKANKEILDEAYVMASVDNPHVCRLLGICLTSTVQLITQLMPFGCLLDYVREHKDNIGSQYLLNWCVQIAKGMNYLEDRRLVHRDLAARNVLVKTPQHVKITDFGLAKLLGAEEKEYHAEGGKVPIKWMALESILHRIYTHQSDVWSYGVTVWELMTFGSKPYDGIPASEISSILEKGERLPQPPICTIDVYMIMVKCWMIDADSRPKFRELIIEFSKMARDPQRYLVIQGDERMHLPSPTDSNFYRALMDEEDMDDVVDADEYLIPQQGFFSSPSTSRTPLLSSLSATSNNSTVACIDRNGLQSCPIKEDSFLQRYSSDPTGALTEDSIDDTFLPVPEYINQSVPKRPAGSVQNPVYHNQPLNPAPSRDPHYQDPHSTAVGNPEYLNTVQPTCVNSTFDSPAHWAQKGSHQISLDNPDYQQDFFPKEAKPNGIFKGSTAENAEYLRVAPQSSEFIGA
Summary of the method: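 Serum-starved cells treated with compound 4 h at 37 °C, then stimulated with EGF (20 or 0 ng/ml solution added) in its continued presence. In-cell Western on fixed cells: phospho-EGFR (800 channel) normalised to total EGFR (700 channel), % inhibition calculated against EGF-stimulated and unstimulated no-compound wells.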

[1] = system: epithelial carcinoma A431 cell line; assay: MTT Cell Proliferation Assay, A431 cell line; type: cell-based; conditions: 72 h
Summary of the method: (§1)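 Cells plated overnight, then exposed 3 days at 37 °C, 5% CO2 to compound in growth medium with 0.5% FBS and 0.5% DMSO final (0.5% DMSO as control).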

MDBK line = assay: MTT Cell Proliferation Assay, MDBK line; type: cell-based, bovine; conditions: 72 h; second value of A431/MDBK pair; read-out: MTT-72 h MDBK
Summary of the method: as §1

[2] = target: T2, EGF binding site, rat liver membranes (Rattus norvegicus, UniProt G3V6K6); assay: Inhibition of [125I]EGF binding (NovaScreen EGF inhibitor assay)
T2 construct: Receptor source was rat liver membranes; tissue NovaScreen BioSciences; host or cells: rat liver membranes
T2 sequence (G3V6K6 25-1209): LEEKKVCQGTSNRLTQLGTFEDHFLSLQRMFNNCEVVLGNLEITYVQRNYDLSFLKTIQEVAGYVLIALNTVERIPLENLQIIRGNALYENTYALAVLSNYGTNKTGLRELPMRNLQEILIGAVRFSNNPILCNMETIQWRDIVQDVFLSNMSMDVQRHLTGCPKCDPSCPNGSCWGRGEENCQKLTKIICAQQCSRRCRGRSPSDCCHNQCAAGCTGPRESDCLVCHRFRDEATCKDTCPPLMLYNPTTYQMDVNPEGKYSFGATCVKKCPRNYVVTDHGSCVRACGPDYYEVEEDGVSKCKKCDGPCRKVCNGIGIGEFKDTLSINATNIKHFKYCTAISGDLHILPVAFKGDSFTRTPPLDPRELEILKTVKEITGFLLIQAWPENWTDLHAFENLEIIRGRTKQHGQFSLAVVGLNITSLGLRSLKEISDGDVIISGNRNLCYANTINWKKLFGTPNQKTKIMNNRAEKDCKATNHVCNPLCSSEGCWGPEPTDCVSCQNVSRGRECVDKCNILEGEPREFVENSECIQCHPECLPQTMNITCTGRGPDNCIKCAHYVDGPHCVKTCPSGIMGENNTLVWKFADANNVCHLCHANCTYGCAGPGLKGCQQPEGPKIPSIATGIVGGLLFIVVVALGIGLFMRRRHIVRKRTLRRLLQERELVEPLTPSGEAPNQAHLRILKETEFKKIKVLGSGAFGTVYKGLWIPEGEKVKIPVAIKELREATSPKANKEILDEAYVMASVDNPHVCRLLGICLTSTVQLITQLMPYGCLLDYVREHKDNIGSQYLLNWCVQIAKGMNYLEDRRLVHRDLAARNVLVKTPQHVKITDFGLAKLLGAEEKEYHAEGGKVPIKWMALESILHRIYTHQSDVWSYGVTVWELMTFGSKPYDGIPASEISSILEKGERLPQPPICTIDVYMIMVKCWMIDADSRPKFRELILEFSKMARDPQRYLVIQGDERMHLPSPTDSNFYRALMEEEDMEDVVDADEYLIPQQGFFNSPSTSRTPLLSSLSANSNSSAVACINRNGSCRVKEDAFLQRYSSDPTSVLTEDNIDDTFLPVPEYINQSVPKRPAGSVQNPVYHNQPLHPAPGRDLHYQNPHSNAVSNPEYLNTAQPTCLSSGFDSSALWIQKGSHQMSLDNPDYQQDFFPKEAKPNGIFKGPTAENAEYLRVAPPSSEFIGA
Procedure: Identified compounds, representing various pharmacaphore models, were tested for ability to inhibit EGFR at 25 μM.
AD4-compounds were identified using pharmacophore models (see Example 3) and then were docked with the binding site of EGFR (SEQ ID NO: 1) that is recognized by defined CDRs of cetuximab.
Receptor source was rat liver membranes. The radioligand was [^125I]EGF ([…]) at a final ligand concentration of 0.36 nM. A non-specific determinant was used as EGF—[100 nM]. The reference compound and positive control was EGF. Reactions were carried out in 10 mM HEPES (pH 7.4) containing 0.1% BSA at 25° C. for 60 minutes. The reaction was terminated by rapid vacuum filtration onto glass fiber filters. Radioactivity trapped onto the filters was determined and compared to control values to ascertain any interactions of test compounds with the EGF binding site. The EGF inhibitor assays were modified from, for example, Mukku (1984) J. Biol. Chem. 259, 6543-6546; Duh et al. (1990) World J. Surgery 14, 410-418; Lokeshwar et al. (1989) J. Biol. Chem. 264(32), 19318-19326.

[3] = system: EGF receptor-mediated cell proliferation; assay: Combinatorial studies with known EGFR inhibitors, median effect analysis (MTT assay); conditions: for DRI @ ED97: Dose Reduction Index
Procedure: Studies were initiated to evaluate the ability of various compounds disclosed herein to synergize with several compounds known to inhibit the function of the EGF receptor in a cell proliferation assay (MTT assay).
The EGFR inhibitor and AD4 compound dilutions were then mixed 1:1 in a 96 well plate. 50 μl of the mix was then added to the cell plate.
A shifting of the inhibitor curve to the left indicates an increase in the effectiveness of the AD4-compound.

A549 cells = assay: A549 Cell Proliferation Assay (MTT); type: cell-based; conditions: Homo sapiens, A549, 72 h, read-out: IC50 Value (μM) A549 Cells
H1975 cells = assay: H1975 Cell Proliferation Assay (MTT); type: cell-based; conditions: Homo sapiens, NCI-H1975, 72 h, read-out: IC50 Value (μM) H1975 Cells
HT-29 cells = assay: HT-29 Cell Proliferation Assay (MTT); type: cell-based; conditions: Homo sapiens, HT-29, 72 h, read-out: IC50 Value (μM) HT-29 Cells
annexin V in A549 cells = conditions: for % Total Apoptosis: cells in early- and late-stage apoptosis; for % Relative to Reference Cpd.: reference 4.0 μM camptothecin or 1.0 μM staurosporin
Text: Assays that measure apoptosis are utilized to determine whether or not compounds can induce programmed cell death in cancer cells. Annexin V is a protein that is used to detect apoptosis by binding to phosphatidylserine expressed on membranes of dead or dying cells. Fluorescently tagged with FITC, it can he used in conjunction with 7-aminoactinomycin D to determine the percentage of cells undergoing apoptosis via flow cytometry. Cells in early apoptosis will emit an FITC signal which will eventually be replaced by the far red 7-AAD signal that is associated with cell membrane permeability due to necrosis.
In brief, for the Annexin V Assay, compounds were added to cells plated in 6-well plates. Treated cells were incubated for up to 30 hours before addition of fluorescent cell marker probes that detect the presence of annexin V. The percentage of cells undergoing apoptosis and necrosis were determined by flow cytometry.
On day 2, working solutions of compounds (at 1000×) were prepared. To 2.0 ml media/well was added 2 μl 1000× compound diluted in 100% DMSO for final DMSO concentration of 0.1%. On day 3, plates were incubated for 30 hrs. […] Cells were collected by centrifugation at 300×g for 5 min.
Resuspended cells were stored at 4° C. in the dark, until flow cytometry analysis.
For flow cytometry analysis of the Annexin V Assay, sample acquisition was on the BD LSR II manufactured by BD Biosciences, San Jose, Calif. […] 10,000 events werer collected based on a stopping gate of forward scatter vs side scatter light. Acquisition was done through BD FACS DiVa software version 6.1.1 on high flow rate (60 μL/min). Calculations were as follows: Quadrant 3=lower left=live cells; Quadrant 4=lower right=early apoptosis; Quadrant 2=upper right=late apoptosis; Quadrant 1=upper left=dead cells. Percent (%)Total apoptosis was calculated as early (quadrant 4)+late (quadrant 2). Percent (%) ratio apoptosis was calculated as (experimental-No treatment/positive control)*100. All statistical analyses are done using GraphPad Prism or Microsoft Excel.

[4] = Stability on incubation with mouse liver microsomes (MLM); type: in vitro ADME; conditions: percentage left after incubation with mouse liver microsomes for 30 minutes
Summary of the method: (§2)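 Values are percent compound remaining after 30 min incubation with mouse or human liver microsomes.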

[5] = Stability on incubation with human liver microsomes (HLM); type: in vitro ADME; conditions: percentage left after incubation with human liver microsomes for 30 minutes
Summary of the method: as §2

[6] = system: DNA fragmentation in A549 cells; assay: DNA Fragmentation Assay (Cell Death Detection ELISA); type: cell-based; conditions: Caspase, DNA Fragmentation, Annexin-V

ICW Screen (EGFR; initial screen): 55.71
ICW Re-Test (EGFR; re-test): 47.05
IC50 ([1]; first value of A431/MDBK pair, read-out: MTT-72 h A431): 8360 nM
Structure (SMILES): COc1ccc(C(Nc2cc(C)ccn2)c2ccc3cccnc3c2O)cc1O (stereo not drawn) [AD4-1505]
MTT-72 h A431/MDBK (ratio) ([1]; value in brackets, numerically MDBK value over A431 value, listed as 1505): 1.12
IC50 (MDBK line): 9330 nM
inhibition of epidermal growth factor binding [2]: inhibitor of epidermal growth factor binding to its receptor
CI @ ED90 ([3]; Combination Index with Iressa at 90% inhibition): 0.59
CI @ ED90 ([3]; Combination Index with Tykerb at 90% inhibition): 0.10
DRI @ ED97 ([3]; effect of the test compound on Iressa): 78
DRI @ ED97 ([3]; effect of the test compound on Tykerb): 203
synergy with Iressa ([3]; based on CI value): shows synergy
synergy with Tykerb ([3]; based on CI value): significant synergy
shift in Tykerb's dose-response curve ([3]; in combination with Tykerb): leftward shift (i.e., greater potency)
IC50 ([3]; read-out: IC50 Iressa + Compound (nM)): 133 nM

Structure (SMILES): Cc1cc(Cl)cnc1NC(c1cccc(Cl)c1Cl)c1ccc2cccnc2c1O (stereo not drawn) [AD4-13147]
IC50 (A549 cells): 0.11 µM
IC50 (H1975 cells): 0.29 µM
IC50 (HT-29 cells): 0.77 µM
% Total Apoptosis (annexin V in A549 cells; 1 μM, A549 cells): 29%
% Total Apoptosis (annexin V in A549 cells; 10 μM, A549 cells): 28%
MLM % Remaining@ 30 Min [4]: 44%
HLM % Remaining@ 30 Min [5]: 98%

Structure (SMILES): Oc1c(C(Nc2cc(Cl)c(Cl)cn2)c2ccc(F)cc2Cl)ccc2cccnc12 (stereo not drawn) [AD4-13185]
IC50 (A549 cells): 0.18 µM
IC50 (H1975 cells): 0.23 µM
IC50 (HT-29 cells): 1.2 µM
apoptotic activity [6]: increased apoptotic activity
apoptosis, share of the cell population (annexin V in A549 cells; 1 μM, A549 cells, FIG. 16B): greater than 50%
% Total Apoptosis (annexin V in A549 cells; 1 μM, A549 cells): 42%
% Relative to Reference Cpd. (annexin V in A549 cells; 1 μM): 161%
late apoptosis, share of the cell population (annexin V in A549 cells; 10 μM, A549 cells, FIG. 16B): up to 20%
% Total Apoptosis (annexin V in A549 cells; 10 μM, A549 cells): 30%
% Relative to Reference Cpd. (annexin V in A549 cells; 10 μM): 202%
MLM % Remaining@ 30 Min [4]: 57%
HLM % Remaining@ 30 Min [5]: 98%
